Experimental data taken from patent US20260159499A1, “COMPOUND AS FAK INHIBITOR AND USE THEREOF” (WIGEN BIOMEDICINE TECHNOLOGY (SHANGHAI) CO., LTD., priority 2021, published 2026).

Columns and labels:
FAK recombinant protein = FAK recombinant protein (Homo sapiens, UniProt Q05397); experiment: Inhibitory activity against FAK enzyme; format: biochemical; conditions: TK substrate, ATP
Procedure: The compound serially diluted with DMSO and a FAK recombinant protein were mixed, and the mixture was left to stand at room temperature for 10 min. A biotin-labeled TK substrate (TK) and ATP were then added. […] After the mixture was incubated at room temperature for 1 h, the fluorescence intensity at 615 nm and 665 nm was measured. The ratio of the fluorescence intensity at 665 nm and 615 nm was calculated. The inhibition percentages and IC50 of the compounds were calculated compared to the DMSO control group.

PC3 cells [1] = experiment: PC3 cell proliferation, 3D activity detection; format: cell-based, human; conditions: Homo sapiens, PC-3, 336 h, PC3, 3D culture, 14 days, read-out: 3D IC50 against PC3 cells
Procedure: 3D activity detection: PC3 cells were seeded in a 96-well plate at 1200 cells/well, and 3D culture was performed. 14 days after the compound serially diluted was added, the growth of the cells was determined. The inhibition percentage and IC50 of the compound were calculated compared to the DMSO control group.

PC3 cells [2] = experiment: PC3 cell proliferation, 2D activity detection; format: cell-based, human; conditions: Homo sapiens, PC-3, PC3, 2D, 72 h, read-out: 2D IC50 against PC3 cells
Procedure: 2D activity detection: 1200 PC3 cells were seeded in a 96-well plate. After overnight adherence culture, the compound serially diluted was added. 72 h after addition, Cell Titer-Lumi (Beyotime C0068XL) was added to measure the ATP content in the cells. The growth of the cells was evaluated, and IC50 of the compounds against cell growth was calculated.

PC3 cells [3] = experiment: Inhibition of PC3 cell adherence; format: cell-based; conditions: Homo sapiens, PC-3; PC3, 4 h treatment; read-out: Inhibitory activity against PC-3 cell adherence IC50
Procedure: PC3 cells were added at 8000 cells/well. 4 h after the cells were treated with the compound, the number of adherent cells was counted. The inhibition percentages and IC50 of the compounds were calculated compared to the DMSO group.

[4] = In vivo pharmacokinetic experiment in mice; design: species or system CD-1 female mice; conditions: female, mouse, plasma, CD-1 mice
Procedure: On the day of the experiment, animals in the intravenous group were administered the corresponding compound by single injection via the tail vein at an administration volume of 10 mL/kg, and animals in the oral group were administered the corresponding compound by single intragastric injection at an administration volume of 10 mL/kg. The animals were weighed before administration, and the administration volume was calculated according to the body weight. […] About 200 μL of whole blood was collected through the orbital venous plexus at each time point and used to prepare plasma for concentration determination by high-performance liquid chromatography-tandem mass spectrometry (LC-MS/MS). The plasma concentrations were processed using a non-compartmental model of Winnolin pharmacokinetic software, and the pharmacokinetic parameters were calculated using a linear-log trapezoidal method.

Sequence of FAK recombinant protein (Q05397 whole entry, species assumed): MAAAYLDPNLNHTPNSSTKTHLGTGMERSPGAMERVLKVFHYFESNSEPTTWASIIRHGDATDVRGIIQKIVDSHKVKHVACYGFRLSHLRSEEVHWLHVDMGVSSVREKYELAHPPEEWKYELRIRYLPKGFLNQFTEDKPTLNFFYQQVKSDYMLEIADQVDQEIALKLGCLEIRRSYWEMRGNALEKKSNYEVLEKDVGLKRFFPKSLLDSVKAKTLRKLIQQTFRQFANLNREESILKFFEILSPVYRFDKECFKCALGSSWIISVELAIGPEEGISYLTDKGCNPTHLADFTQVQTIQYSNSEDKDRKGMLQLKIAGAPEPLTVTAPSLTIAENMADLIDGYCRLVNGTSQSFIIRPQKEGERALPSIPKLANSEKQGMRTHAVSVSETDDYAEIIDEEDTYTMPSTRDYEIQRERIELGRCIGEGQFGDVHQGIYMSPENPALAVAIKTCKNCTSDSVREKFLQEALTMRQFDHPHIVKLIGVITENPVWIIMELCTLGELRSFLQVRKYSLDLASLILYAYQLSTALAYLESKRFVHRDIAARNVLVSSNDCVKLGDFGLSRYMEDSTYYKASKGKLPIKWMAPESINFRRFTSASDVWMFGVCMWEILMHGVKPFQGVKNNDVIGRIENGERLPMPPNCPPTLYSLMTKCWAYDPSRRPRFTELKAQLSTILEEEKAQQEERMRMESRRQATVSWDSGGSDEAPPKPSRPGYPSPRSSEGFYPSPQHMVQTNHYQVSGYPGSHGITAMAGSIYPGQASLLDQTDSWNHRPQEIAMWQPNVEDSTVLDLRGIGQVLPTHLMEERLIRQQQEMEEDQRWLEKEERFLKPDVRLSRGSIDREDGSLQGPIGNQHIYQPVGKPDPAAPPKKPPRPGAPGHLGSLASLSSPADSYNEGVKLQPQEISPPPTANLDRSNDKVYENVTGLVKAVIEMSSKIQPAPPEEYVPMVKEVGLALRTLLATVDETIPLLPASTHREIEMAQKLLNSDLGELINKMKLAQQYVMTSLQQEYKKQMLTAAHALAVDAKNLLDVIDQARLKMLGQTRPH

| SMILES | IC50 (FAK recombinant protein) | IC50 (PC3 cells [2]; class symbol) | IC50 (PC3 cells [1]; class symbol) | also measured |
| --- | --- | --- | --- | --- |
| CNC(=O)c1ccccc1Oc1nc(Nc2cc(F)c(C(=O)NC3CC4(CCN(C)CC4)CO3)cc2OC)ncc1C(F)(F)F (stereo not drawn) [Compound 3] | < 0.01 µM | > 2 µM | 0.005 to 0.05 µM |  |
| COc1cc(C(=O)NC2CCC3(CC2)CN(C)C3)ccc1Nc1ncc(C(F)(F)F)c(Cc2cccc3c2C(=O)N(C)C3)n1 [Compound 58] | < 0.01 µM | > 2 µM | 0.005 to 0.05 µM |  |
| COc1cc(C(=O)NC2CC3(CCN(C)CC3)CO2)c(F)cc1Nc1ncc(C(F)(F)F)c(Oc2ccccc2N(C)S(C)(=O)=O)n1 (stereo not drawn) [Compound 12] | < 0.01 µM | > 2 µM | < 0.005 µM |  |
| CNC(=O)c1ccccc1Oc1nc(Nc2cc(F)c(C(=O)NC3CC4(CCN(C)CC4)C3)cc2OC)ncc1C(F)(F)F [Compound 1, 2-fluoro-5-methoxy-N-(7-methyl-7-azaspiro[3.5]nonan-2-yl)-4-((4-(2-(methylcarbamoyl)phenoxy)-5-(trifluoromethyl)pyrimidin-2-yl)amino)benzamide] | < 0.01 µM | > 2 µM | 0.005 to 0.05 µM |  |
| COc1cc(C(=O)NC2CCC3(CC2)CCN(C)CC3)c(F)cc1Nc1ncc(C(F)(F)F)c(Oc2ccccc2N(C)S(C)(=O)=O)n1 [Compound 16] | 0.01 to 0.05 µM | > 2 µM | 0.005 to 0.05 µM |  |
| COc1cc(C(=O)NC2CC3(CCN(C)CC3)C2)ccc1Nc1ncc(C(F)(F)F)c(Oc2cccc3c2C(=O)N(C)C3C)n1 (stereo not drawn) [Compound 72] | < 0.01 µM | > 2 µM | < 0.005 µM |  |
| COc1cc(C(=O)NC2CCC3(CC2)CN(C)C3)c(F)cc1Nc1ncc(C(F)(F)F)c(Oc2cccc3c2C(=O)N(C)C3(C)C)n1 [Compound 77] | < 0.01 µM | > 2 µM | 0.005 to 0.05 µM |  |
| COc1cc(C(=O)NC2CCC3(CC2)CCN3C)c(F)cc1Nc1ncc(C(F)(F)F)c(Oc2cccc3c2C(=O)N(C)C3)n1 (stereo not drawn) [Compound 22] | < 0.01 µM | > 2 µM | < 0.005 µM |  |
| CNC(=O)c1ccccc1Oc1nc(Nc2cc(F)c(C(=O)NC3CCC4(CC3)CCN(C)CC4)cc2OC)ncc1C(F)(F)F [Compound 9] | 0.01 to 0.05 µM | > 2 µM | 0.005 to 0.05 µM |  |
| COc1cc(C(=O)NC2CCC3(CCN(C)CC3)C2)c(F)cc1Nc1ncc(C(F)(F)F)c(Oc2ccccc2N(C)S(C)(=O)=O)n1 (stereo not drawn) [Compound 11] | < 0.01 µM | > 2 µM | 0.005 to 0.05 µM |  |
| COc1cc(C(=O)NC2CC3(CCN(C)CC3)C2)ccc1Nc1ncc(C(F)(F)F)c(Cc2cccc3c2C(=O)N(C)C3)n1 [Compound 57] | < 0.01 µM | > 2 µM | < 0.005 µM |  |
| COc1cc(C(=O)NC2CC3(CCNCC3)C2)c(F)cc1Nc1ncc(C(F)(F)F)c(Oc2cccc3c2C(=O)N(C)C3)n1 [Compound 41] | 0.01 to 0.05 µM | > 2 µM | 0.005 to 0.05 µM |  |
| COc1cc(C(=O)NC2CCn3ccnc3C2)c(F)cc1Nc1ncc(C(F)(F)F)c(Oc2cccc3c2C(=O)N(C)C3)n1 (stereo not drawn) [Compound 32] | < 0.01 µM | > 2 µM | 0.005 to 0.05 µM |  |
| COc1cc(C(=O)NC2CCC3(CC2)CN(C)C3)c(Cl)cc1Nc1ncc(C(F)(F)F)c(Cc2cccc3c2C(=O)N(C)C3)n1 [Compound 56] | < 0.01 µM | > 2 µM | 0.005 to 0.05 µM |  |

Now from value to molecule, other results behind:

| IC50 (FAK recombinant protein) | IC50 (PC3 cells [2]; class symbol) | IC50 (PC3 cells [1]; class symbol) | SMILES | also measured |
| --- | --- | --- | --- | --- |
| < 0.01 µM | > 2 µM |  | COc1cc(N2CC3(CCN(C)CC3)C2)ccc1Nc1ncc(C(F)(F)F)c(Oc2cccc3c2C(=O)N(C)C3(C)C)n1 [Compound 101] | IC50 (PC3 cells [1]; numeric (mean where marked *)): 0.00486 µM; IC50 (PC3 cells [3]): 0.00226 µM |
| < 0.01 µM | > 2 µM |  | COc1cc(N2CC3(CCN(C)CC3)C2)ccc1Nc1ncc(C(F)(F)F)c(Oc2cccc3c2C(=O)N(C)C3C)n1 (stereo not drawn) [Compound 100] | IC50 (PC3 cells [1]; numeric (mean where marked *)): 0.00222 µM; IC50 (PC3 cells [3]): 0.00133 µM |
| 0.01 to 0.05 µM |  |  | COc1cc(C(=O)NC2CCC23CCN(C)CC3)c(F)cc1Nc1ncc(C(F)(F)F)c(Oc2cccc3c2C(=O)N(C)C3)n1 (stereo not drawn) [Compound 21] | IC50 (PC3 cells [1]; numeric (mean where marked *)): 0.00132 µM; IC50 (PC3 cells [2]; numeric): > 10 µM; IC50 (PC3 cells [3]): 0.0085 µM |
| < 0.01 µM |  |  | COc1cc(C(=O)NC2CCC3(CC2)CN(C)C3)c(F)cc1Nc1ncc(C(F)(F)F)c(Oc2cccc3c2C(=O)N(C)C3)n1 [Compound 20] | IC50 (PC3 cells [1]; numeric (mean where marked *)): 0.00423 µM; AUC(0-t) ([4]; injection (IV) 2 mg/kg): 622 ng·h/mL; clearance ([4]; injection (IV) 2 mg/kg): 26.8 mL/min/kg; half-life ([4]; injection (IV) 2 mg/kg): 3.46 h; Vd ([4]; injection (IV) 2 mg/kg, read-out: Vdss): 4.99 L/kg; AUC(0-t) ([4]; oral administration 10 mg/kg): 934 ng·h/mL; Cmax ([4]; oral administration 10 mg/kg): 190 ng/mL; Tmax ([4]; oral administration 10 mg/kg): 2 h; half-life ([4]; oral administration 10 mg/kg): 1.97 h; bioavailability ([4]; oral administration 10 mg/kg vs injection): 30%; IC50 (PC3 cells [2]; numeric): > 10 µM |
| < 0.01 µM | > 2 µM |  | COc1cc(N2CC3(CCN(C)CC3)C2)ccc1Nc1ncc(Br)c(Oc2cccc3c2C(=O)N(C)C3)n1 [Compound 112] | IC50 (PC3 cells [1]; numeric (mean where marked *)): 0.00066 µM; IC50 (PC3 cells [3]): 0.00093 µM |
| < 0.01 µM | > 2 µM | 0.005 to 0.05 µM | COc1cc(N2CC3(CCN(C)C3)OC2=O)c(F)cc1Nc1ncc(C(F)(F)F)c(Oc2cccc3c2C(=O)N(C)C3)n1 (stereo not drawn) [Compound 64] | IC50 (PC3 cells [3]): 0.00333 µM |
| < 0.01 µM | > 2 µM | < 0.005 µM | COc1cc(N2CCC3(CCN(C)CC3)CC2)ccc1Nc1ncc(C(F)(F)F)c(Oc2cccc3c2C(=O)N(C)C3)n1 [Compound 94] | IC50 (PC3 cells [3]): 0.00258 µM |
| 0.01 to 0.05 µM | > 2 µM | 0.005 to 0.05 µM | COc1cc(C(=O)N2CCC23CCN(C)CC3)c(F)cc1Nc1ncc(C(F)(F)F)c(Oc2cccc3c2C(=O)N(C)C3)n1 [Compound 38] |  |
| < 0.01 µM | > 2 µM | < 0.005 µM | COc1cc(N2CC3(CCN(C4CC4)CC3)C2)ccc1Nc1ncc(C(F)(F)F)c(Oc2cccc3c2C(=O)N(C)C3)n1 [Compound 104] |  |
| < 0.01 µM | > 2 µM | < 0.005 µM | COc1cc(N2CCC3(CC2)CN(C)C3)ccc1Nc1ncc(Br)c(Oc2cccc3c2C(=O)N(C)C3)n1 [Compound 117] |  |
| < 0.01 µM | > 2 µM | < 0.005 µM | [2H]C([2H])([2H])N1CCC2(CC1)CC(NC(=O)c1cc(OC)c(Nc3ncc(C(F)(F)F)c(Oc4cccc5c4C(=O)N(C)C5)n3)cc1F)C2 [Compound 47] |  |
| 0.01 to 0.05 µM | > 2 µM | 0.005 to 0.05 µM | COc1cc(N2CC3(CCN(C)CC3)OC2=O)c(F)cc1Nc1ncc(C(F)(F)F)c(Oc2cccc3c2C(=O)N(C)C3)n1 [Compound 63] |  |
| < 0.01 µM | > 2 µM | < 0.005 µM | [2H]C([2H])([2H])N1CCC2(CC1)CN(c1ccc(Nc3ncc(C(F)(F)F)c(Oc4cccc5c4C(=O)N(C)C5)n3)c(OC)c1)C2 [Compound 109, 7-((2-((2-methoxy-4-(7-(methyl-d3)-2,7-diazaspiro[3.5]non-2-yl)phenyl)amino)-5-(trifluoromethyl)pyrimidin-4-yl)oxy)-2-methylisoindolin-1-one] |  |
| > 0.05 µM | > 2 µM | > 0.05 µM | COc1cc(C(=O)N2CCC3(CCN(C)CC3)CC2)c(F)cc1Nc1ncc(C(F)(F)F)c(Oc2cccc3c2C(=O)N(C)C3)n1 [Compound 35] |  |
| < 0.01 µM | > 2 µM | < 0.005 µM | COc1cc(N2CCC3(CCN(C)CC3)CC2)c(F)cc1Nc1ncc(C(F)(F)F)c(Oc2cccc3c2C(=O)N(C)C3)n1 [Compound 93] |  |
| < 0.01 µM | > 2 µM | < 0.005 µM | COc1cc(N2CC3(CCNCC3)C2)c(F)cc1Nc1ncc(C(F)(F)F)c(Oc2cccc3c2C(=O)N(C)C3)n1 [Compound 107, 7-((2-((5-fluoro-2-methoxy-4-(2,7-diazaspiro[3.5]non-2-yl)phenyl)amino)-5-(trifluoromethyl)pyrimidin-4-yl)oxy)-2-methylisoindolin-1-one] |  |
| < 0.01 µM | > 2 µM | < 0.005 µM | COc1cc(N2CCC23CCN(C)CC3)ccc1Nc1ncc(C(F)(F)F)c(Oc2cccc3c2C(=O)N(C)C3)n1 [Compound 97] |  |
| 0.01 to 0.05 µM | > 2 µM | 0.005 to 0.05 µM | COc1cc(C2=NOC3(CCN(C)CC3)C2)ccc1Nc1ncc(C(F)(F)F)c(Oc2cccc3c2C(=O)N(C)C3)n1 [Compound 68] |  |
| < 0.01 µM | > 2 µM | 0.005 to 0.05 µM | COc1cc(C(=O)NC2CCC3(CC2)CN(C)C3)ccc1Nc1ncc(C(F)(F)F)c(Oc2cccc3c2C(=O)N(C)C3)n1 [Compound 46] |  |
